# In patent US7169756B2, “Streptogramin antibiotics” (priority 2005, dated 2007):
# Like-named read-outs stand apart in the source and are kept apart here. Numbered stars: 1 amine (or outer) side, 2 acyl side, 3 side chain; on linkers, the order of the positions; unused ones are H or OH. Bridge positions count the residues as written; N and C are the ends. Square brackets hold non-standard residues; d marks the D form. Peptide text beside a SMILES is read from it. * marks the point of attachment. X1 = O=C1C[C@@H](C(=O)[*:2])N([*:1])C[C@H]1CS[C@@H]1CN2CCC1CC2; NMePhe(4-NMe2) = CN[C@@H](Cc1ccc(N(C)C)cc1)C(=O)O; Picolinoyl(3-OH) = O=C(c1ncccc1O)*; Phg = N[C@H](C(=O)O)c1ccccc1; Orn = NCCC[C@H](N)C(=O)O; dAbu = CC[C@@H](N)C(=O)O; Dap = NC[C@H](N)C(=O)O
# Columns and labels:
# E. coli BAS901/pUC19ermB = test: microbe, parasite or virus in culture; type: cell-based, Escherichia coli
# Excerpt: In order to test the effects of 5 against E. coli BAS901 harboring ermB, the 23S rRNA methyltransferase, the plasmid pJIM2246 ΩermB [13] was purified from Staphylococcus aureus RN4220/pJIM2246 ΩermB. ErmB was subsequently amplified from pJIM2246 ΩermB via polymerase chain reaction using primers 5′-[…] AND 5′-[…] (engineered restriction enzyme sites are underlined). The amplified product was subcloned into pCR4Blunt-TOPO (Invitrogen) and transformed into E. coli XL10 GOLD, resulting in ermB being positioned in frame with the lacZ gene. This construct, designated pTOPOerm, was then used as template in the reamplification of ermB using a new forward primer containing a strong ribosomal binding consensus sequence (shown in italics); 5-[…]. […]
# The antibiotic activity of the peptides synthesized in this study was initially assayed using a disk assay where samples were applied to sterile paper disks placed on a fresh lawn of bacterial culture on appropriate agar plates as required by the organism. These were then incubated for 16 hr at 37° C. and the zone of growth inhibition surrounding the disks recorded. For quantitative assessment of antibiotic activity in liquid culture, the minimal inhibitory concentration (MIC) of peptides was determined by serial dilution studies. […]
# [1] = test system: Streptococcus pneumoniae (ATCC 6305); type: cell-based
# Description: (§1) The antibiotic activity of the peptides synthesized in this study was initially assayed using a disk assay where samples were applied to sterile paper disks placed on a fresh lawn of bacterial culture on appropriate agar plates as required by the organism. These were then incubated for 16 hr at 37° C. and the zone of growth inhibition surrounding the disks recorded. For quantitative assessment of antibiotic activity in liquid culture, the minimal inhibitory concentration (MIC) of peptides was determined by serial dilution studies. The peptides and standard antibiotics were dissolved in DMSO and the final concentration of DMSO in the liquid cultures was 5%. Both S. aureus RN4220 and E. coli BAS901 were able to grow efficiently at this level of DMSO.
# (§2) Crude material from the initial synthesis reactions was used to test the potential of the analogues as antibiotics in susceptibility assays where a solution of the compound was placed on a paper disk on a lawn of bacteria. As described above, E. coli BAS901 is deficient in the Imp/OstA protein, an outer membrane protein, involved in cell envelope biogenesis (1, 5). […] The antibiotic activity of the peptides synthesized in this study was initially assayed using a disk assay where samples were applied to sterile paper disks placed on a fresh lawn of bacterial culture on Tryptic Soya, Luria Broth, or Brain Heart Infusion Agar plates. These were then incubated for 16 hrs at 37° C. and the zone of growth inhibition surrounding the disks recorded.
# [2] = test system: Enterococcus faecalis (ATCC 29212); type: cell-based
# Description: as §1, §2
# [3] = test system: Staphylococcus epidermidis (ATCC 12228); type: cell-based
# Description: as §1, §2
# [4] = test system: Staphylococcus epidermidis (ATCC 14990); type: cell-based
# Description: as §1, §2
# [5] = test system: Streptococcus pneumoniae (ATCC 49619); test: microbe, parasite or virus in culture; type: cell-based
# Description: as §1
# [6] = test system: Staphylococcus aureus RN4220/pJIM2246; test: microbe, parasite or virus in culture; type: cell-based
# Description: as §1
# [7] = test system: Staphylococcus aureus (ATCC 29213); test: microbe, parasite or virus in culture; type: cell-based
# Description: as §1
# [8] = test system: Streptococcus pneumoniae (ATCC 6305); test: microbe, parasite or virus in culture; type: cell-based
# Description: as §1
# [9] = test system: Staphylococcus aureus RN4220/pJIM2246Ωvgb; test: microbe, parasite or virus in culture; type: cell-based
# Description: as §1
# [10] = test system: Enterococcus faecalis (ATCC 29212); test: microbe, parasite or virus in culture; type: cell-based
# Description: as §1
# [11] = test system: Staphylococcus saprophyticus (ATCC 15305); test: microbe, parasite or virus in culture; type: cell-based
# Description: as §1
# [12] = test system: Staphylococcus aureus RN4220/pJIM2246ΩermB; test: microbe, parasite or virus in culture; type: cell-based
# Description: as §1
# [13] = test system: Staphylococcus epidermidis (ATCC 12228); test: microbe, parasite or virus in culture; type: cell-based
# Description: as §1
# [14] = test system: Staphylococcus epidermidis (ATCC 14990); test: microbe, parasite or virus in culture; type: cell-based
# Description: as §1
# B. subtilis 168 = type: cell-based, Bacillus subtilis
# Description: as §1
# (§3) Crude material from the initial synthesis reactions was used to test the potential of the analogues as antibiotics in susceptibility assays where a solution of the compound was placed on a paper disk on a lawn of bacteria. As described above, E. coli BAS901 is deficient in the Imp/OstA protein, an outer membrane protein, involved in cell envelope biogenesis (1, 5). […] These were then incubated for 16 hrs at 37° C. and the zone of growth inhibition surrounding the disks recorded.
# Haemophilus influenza = test: disk assay, zone of growth inhibition; type: cell-based, Haemophilus influenzae
# Description: as §1, §3
# E. coli ribosomes = conditions: fluorescence titration, purified intact E. coli ribosomes
# [15] = test system: Streptococcus pneumoniae (ATCC 49619); test: disk assay, zone of growth inhibition; type: cell-based
# Description: as §1, §2
# [16] = test system: Enterococcus faecalis (ATCC 51299); test: disk assay, zone of growth inhibition; type: cell-based; conditions: vancomycin, aminoglycoside resistant
# Description: as §1, §2
# [17] = test system: Staphylococcus aureus (ATCC 29213); test: disk assay, zone of growth inhibition; type: cell-based
# Description: as §1, §2
# [18] = test system: Salmonella enterica (ATCC 14028); test: disk assay, zone of growth inhibition; type: cell-based; conditions: serovar Typhimurium
# Description: as §1, §2
# [19] = test system: Staphylococcus aureus (ATCC 25923); test: disk assay, zone of growth inhibition; type: cell-based
# Description: as §1, §2
# [20] = test system: Staphylococcus aureus (ATCC 43300); test: disk assay, zone of growth inhibition; type: cell-based; conditions: methicillin resistant, oxacillin resistant
# Description: as §1, §2
# [21] = test system: Staphylococcus aureus (ATCC 49476); test: disk assay, zone of growth inhibition; type: cell-based
# Description: as §1, §2
smiles,measurement,setting,value
CC(C)C[C@@H]1NC(=O)[C@H](CCCN)NC(=O)[C@H]([C@@H](C)O)NC(=O)[C@@H](NC(=O)c2ncccc2O)CNC(=O)[C@H](Cc2ccccc2)NC(=O)[C@@H]2CCCN2C(=O)[C@@H](Cc2ccccc2)NC1=O [Compound 5] ({Picolinoyl(3-OH)}-[Dap]T[Orn]L[dF]PF; lactam 1-C),MIC,E. coli BAS901/pUC19ermB; E. coli BAS901/pUC19ermB (Erm methyltransferase),32 µg/mL
same,Zone of Inhibition,"[1]; ATCC 6305, 16 h",0.8 cm
same,Zone of Inhibition,"[2]; ATCC 29212, 16 h",0.75 cm
same,Zone of Inhibition,"[3]; ATCC 12228, 16 h",0.85 cm
same,Zone of Inhibition,"[4]; ATCC 14990, 16 h",0.75 cm
same,MIC,"[5]; ATCC 49619, 16 h",128 µg/mL
same,MIC,[6],256 µg/mL
same,MIC,[7],256 µg/mL
same,MIC,"[8]; ATCC 6305, 16 h",32 µg/mL
same,MIC,[9]; Staphylococcus aureus RN4220/pJIM2246Ωvgb,256 µg/mL
same,MIC,"[10]; ATCC 29212, 16 h",128 µg/mL
same,MIC,"[11]; ATCC 15305, 16 h",64 µg/mL
same,MIC,[12]; Staphylococcus aureus RN4220/pJIM2246ΩermB,256 µg/mL
same,MIC,"[13]; ATCC 12228, 16 h",64 µg/mL
same,MIC,"[14]; ATCC 14990, 16 h",64 µg/mL
same,Zone of Inhibition,"B. subtilis 168; 168, 16 h",0.8 cm
same,Zone of Inhibition,Haemophilus influenza,n.i.
same,ribosome binding (increase of Hpa fluorescence),E. coli ribosomes,did not appear to interact with the ribosome
same,Zone of Inhibition,[15],n.i.
same,Zone of Inhibition,[16],n.i.
same,Zone of Inhibition,[17],n.i.
same,Zone of Inhibition,[18],n.i.
same,Zone of Inhibition,[19],n.i.
same,Zone of Inhibition,[20],n.i.
same,Zone of Inhibition,[21],n.i.
"CC[C@H]1NC(=O)[C@@H](NC(=O)c2ncccc2O)[C@@H](C)OC(=O)[C@H](c2ccccc2)NC(=O)[C@@H]2CC(=O)[C@H](CS[C@@H]3CN4CCC3CC4)CN2C(=O)[C@H](Cc2ccc(N(C)C)cc2)N(C)C(=O)[C@@H]2CCCN2C1=O [Quinupristin, quinupristin, reference compound] ({Picolinoyl(3-OH)}-T[dAbu]P[NMePhe(4-NMe2)][X1][Phg]; ester 1-C)",MIC,"E. coli BAS901/pUC19ermB; Escherichia coli, BAS901/PUC19ERMB",16 µg/mL
same,Zone of Inhibition,"[1]; Streptococcus pneumoniae (ATCC 6305), disk assay",2.1 cm
same,Zone of Inhibition,"[2]; Enterococcus faecalis (ATCC 29212), disk assay",1.8 cm
same,Zone of Inhibition,"[3]; Staphylococcus epidermidis (ATCC 12228), disk assay",3.4 cm
same,Zone of Inhibition,"[4]; Staphylococcus epidermidis (ATCC 14990), disk assay",3.0 cm
same,MIC,"[5]; ATCC49619, Streptococcus pneumoniae (ATCC 49619), read-out: MIC",0.5 µg/mL
same,MIC,[6],2 µg/mL
same,MIC,"[7]; ATCC29213, read-out: MIC",4 µg/mL
same,MIC,"[8]; ATCC6305, Streptococcus pneumoniae (ATCC 6305), read-out: MIC",1 µg/mL
same,MIC,[9]; Staphylococcus aureus,8 µg/mL
same,MIC,"[10]; ATCC29212, Enterococcus faecalis (ATCC 29212), read-out: MIC",8 µg/mL
same,MIC,"[11]; ATCC15305, Staphylococcus saprophyticus (ATCC 15305), read-out: MIC",8 µg/mL
same,MIC,[12]; Staphylococcus aureus,8 µg/mL
same,MIC,"[13]; ATCC12228, Staphylococcus epidermidis (ATCC 12228), read-out: MIC",0.5 µg/mL
same,MIC,"[14]; ATCC14990, Staphylococcus epidermidis (ATCC 14990), read-out: MIC",1 µg/mL
same,Zone of Inhibition,"B. subtilis 168; B. subtilis 168, disk assay",2.2 cm
same,Zone of Inhibition,Haemophilus influenza,n.i.
same,ribosome binding (increase of Hpa fluorescence),E. coli ribosomes,did support ribosome binding
same,Zone of Inhibition,[15],2.0 cm
same,Zone of Inhibition,[16],n.i.
same,Zone of Inhibition,[17],2.3 cm
same,Zone of Inhibition,[18],n.i.
same,Zone of Inhibition,[19],2.2 cm
same,Zone of Inhibition,[20],n.i.
same,Zone of Inhibition,[21],2.6 cm
